Test results published in patent US9486506B2 (Novo Nordisk A/S, priority 2011, dated 2016).
Numbered stars: 1 amine (or outer) side, 2 acyl side, 3 side chain; on linkers, the order of the positions; unused ones are H or OH. Side chains are listed from the residue outwards. Peptide text beside a SMILES is read from it. * marks the point of attachment. C18 diacid = O=C(O)CCCCCCCCCCCCCCCCC(=O)*; γGlu = O=C(O)[C@H](CCC(=O)[*:2])N[*:1]; AEEA = NCCOCCOCC(=O)O

Biological target: T1, glucagon receptor (Homo sapiens, UniProt P47871)
T1 construct: expressed in transfected cells
T1 sequence (P47871 26-477): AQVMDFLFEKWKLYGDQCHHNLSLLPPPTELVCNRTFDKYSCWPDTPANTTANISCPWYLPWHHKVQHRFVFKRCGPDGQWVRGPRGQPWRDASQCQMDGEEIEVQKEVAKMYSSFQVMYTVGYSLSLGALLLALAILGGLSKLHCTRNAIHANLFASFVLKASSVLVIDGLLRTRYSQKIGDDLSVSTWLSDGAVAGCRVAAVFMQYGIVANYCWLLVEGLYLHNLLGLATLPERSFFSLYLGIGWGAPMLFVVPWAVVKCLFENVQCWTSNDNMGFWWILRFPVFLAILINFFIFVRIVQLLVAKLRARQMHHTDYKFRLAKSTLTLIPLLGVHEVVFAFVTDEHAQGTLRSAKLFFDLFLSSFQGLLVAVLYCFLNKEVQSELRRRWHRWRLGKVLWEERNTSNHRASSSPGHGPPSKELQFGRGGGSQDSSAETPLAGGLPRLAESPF
Experiment: Assay (I) Glucagon activity (cAMP biosensor, FLIPR)
Assay type: cell-based

## CC[C@H](C)[C@H](NC(=O)[C@H](CC(N)=O)NC(=O)[C@H](CC(C)C)NC(=O)[C@H](CC(C)C)NC(=O)[C@H](Cc1c[nH]c2ccccc12)NC(=O)[C@H](CCCCNC(=O)CC[C@H](NC(=O)COCCOCCNC(=O)COCCOCCNC(=O)CC[C@H](NC(=O)CCCCCCCCCCCCCCCCC(=O)O)C(=O)O)C(=O)O)NC(=O)[C@@H](NC(=O)[C@H](Cc1ccccc1)NC(=O)[C@H](CC(=O)O)NC(=O)[C@H](CCC(N)=O)NC(=O)[C@H](C)NC(=O)[C@H](CCCNC(=N)N)NC(=O)[C@H](CCCNC(=N)N)NC(=O)[C@@H](NC(=O)[C@H](CC(=O)O)NC(=O)[C@H](CC(C)C)NC(=O)[C@H](Cc1ccc(O)cc1)NC(=O)[C@H](CCCCN)NC(=O)[C@H](CO)NC(=O)[C@H](Cc1ccc(O)cc1)NC(=O)[C@H](CC(=O)O)NC(=O)[C@H](CO)NC(=O)[C@@H](NC(=O)[C@H](Cc1ccccc1)NC(=O)[C@@H](NC(=O)CNC(=O)[C@H](CCC(N)=O)NC(=O)[C@H](CO)NC(=O)[C@@H](N)Cc1c[nH]cn1)[C@@H](C)O)[C@@H](C)O)[C@@H](C)O)C(C)C)C(=O)O [Example 35, N^ε24-[(4S)-4-carboxy-4-[[2-[2-[2-[[2-[2-[2-[[(4S)-4-carboxy-4-(17-carboxyheptadecanoylamino)butanoyl]amino]ethoxy]ethoxy]acetyl]amino]ethoxy]ethoxy]acetyl]amino]butanoyl]-[Thr16,Lys24,Leu27,Ile29]-Glucagon]
  EC50: 0.413 nM

## CC(C)C[C@H](NC(=O)[C@H](Cc1c[nH]c2ccccc12)NC(=O)[C@H](CCCCNC(=O)CC[C@H](NC(=O)COCCOCCNC(=O)COCCOCCNC(=O)CC[C@H](NC(=O)CCCCCCCCCCCCCCCCC(=O)O)C(=O)O)C(=O)O)NC(=O)[C@@H](NC(=O)[C@H](Cc1ccccc1)NC(=O)[C@H](CCC(=O)O)NC(=O)[C@H](CCC(N)=O)NC(=O)[C@H](C)NC(=O)[C@H](CCCNC(=N)N)NC(=O)[C@H](CCCNC(=N)N)NC(=O)[C@@H](NC(=O)[C@H](CC(=O)O)NC(=O)[C@H](CC(C)C)NC(=O)[C@H](Cc1ccc(O)cc1)NC(=O)[C@H](CCCCN)NC(=O)[C@H](CO)NC(=O)[C@H](Cc1ccc(O)cc1)NC(=O)[C@H](CC(=O)O)NC(=O)[C@H](CO)NC(=O)[C@@H](NC(=O)[C@H](Cc1ccccc1)NC(=O)[C@@H](NC(=O)CNC(=O)[C@H](CCC(N)=O)NC(=O)[C@H](CO)NC(=O)[C@@H](N)Cc1c[nH]cn1)[C@@H](C)O)[C@@H](C)O)[C@@H](C)O)C(C)C)C(=O)N[C@@H](CC(C)C)C(=O)N[C@@H](CC(N)=O)C(=O)N[C@H](C(=O)O)C(C)C [Example 36, N^ε24-[(4S)-4-carboxy-4-[[2-[2-[2-[[2-[2-[2-[[(4S)-4-carboxy-4-(17-carboxyheptadecanoylamino)butanoyl]amino]ethoxy]ethoxy]acetyl]amino]ethoxy]ethoxy]acetyl]amino]butanoyl]-[Thr16,Glu21,Lys24,Leu27,Val29]-Glucagon] (H-HSQGTFTSDYSKYLDTRRAQEFVK([γGlu-AEEA-AEEA-γGlu-C18 diacid])WLLNV-OH)
  EC50: 0.12 nM

## CC(C)C[C@H](NC(=O)[C@H](CC(N)=O)NC(=O)[C@H](CC(C)C)NC(=O)[C@H](CC(C)C)NC(=O)[C@H](Cc1c[nH]c2ccccc12)NC(=O)[C@H](CCCCNC(=O)CC[C@H](NC(=O)COCCOCCNC(=O)COCCOCCNC(=O)CC[C@H](NC(=O)CCCCCCCCCCCCCCCCC(=O)O)C(=O)O)C(=O)O)NC(=O)[C@@H](NC(=O)[C@H](Cc1ccccc1)NC(=O)[C@H](CCC(=O)O)NC(=O)[C@H](CCC(N)=O)NC(=O)[C@H](C)NC(=O)[C@H](CCCNC(=N)N)NC(=O)[C@H](CCCNC(=N)N)NC(=O)[C@@H](NC(=O)[C@H](CC(=O)O)NC(=O)[C@H](CC(C)C)NC(=O)[C@H](Cc1ccc(O)cc1)NC(=O)[C@H](CCCCN)NC(=O)[C@H](CO)NC(=O)[C@H](Cc1ccc(O)cc1)NC(=O)[C@H](CC(=O)O)NC(=O)[C@H](CO)NC(=O)[C@@H](NC(=O)[C@H](Cc1ccccc1)NC(=O)[C@@H](NC(=O)CNC(=O)[C@H](CCC(N)=O)NC(=O)[C@H](CO)NC(=O)[C@@H](N)Cc1c[nH]cn1)[C@@H](C)O)[C@@H](C)O)[C@@H](C)O)C(C)C)C(=O)O [Example 37, N^ε24-[(4S)-4-carboxy-4-[[2-[2-[2-[[2-[2-[2-[[(4S)-4-carboxy-4-(17-carboxyheptadecanoylamino)butanoyl]amino]ethoxy]ethoxy]acetyl]amino]ethoxy]ethoxy]acetyl]amino]butanoyl]-[Thr16,Glu21,Lys24,Leu27,Leu29]-Glucagon] (H-HSQGTFTSDYSKYLDTRRAQEFVK([γGlu-AEEA-AEEA-γGlu-C18 diacid])WLLNL-OH)
  EC50: 0.183 nM

## CC(C)C[C@H](NC(=O)[C@H](CC(=O)O)NC(=O)[C@H](CC(C)C)NC(=O)[C@H](Cc1ccc(O)cc1)NC(=O)[C@H](CCCNC(=N)N)NC(=O)[C@H](CO)NC(=O)[C@H](Cc1ccc(O)cc1)NC(=O)[C@H](CC(=O)O)NC(=O)[C@H](CO)NC(=O)[C@@H](NC(=O)[C@H](Cc1ccccc1)NC(=O)[C@@H](NC(=O)CNC(=O)[C@H](CCC(N)=O)NC(=O)[C@H](CO)NC(=O)[C@@H](N)Cc1c[nH]cn1)[C@@H](C)O)[C@@H](C)O)C(=O)N[C@@H](CCCNC(=N)N)C(=O)N[C@@H](CCCNC(=N)N)C(=O)N[C@@H](C)C(=O)N[C@@H](CCC(N)=O)C(=O)N[C@@H](CCC(=O)O)C(=O)N[C@@H](Cc1ccccc1)C(=O)N[C@H](C(=O)N[C@@H](CCCCNC(=O)CC[C@H](NC(=O)CC[C@H](NC(=O)COCCOCCNC(=O)COCCOCCNC(=O)CC[C@H](NC(=O)CCCCCCCCCCCCCCCCC(=O)O)C(=O)O)C(=O)O)C(=O)O)C(=O)N[C@@H](Cc1c[nH]c2ccccc12)C(=O)N[C@@H](CC(C)C)C(=O)N[C@@H](CC(C)C)C(=O)N[C@@H](CO)C(=O)N[C@H](C(=O)O)[C@@H](C)O)C(C)C [Example 46, N^ε24-[(4S)-4-carboxy-4-[[(4S)-4-carboxy-4-[[2-[2-[2-[[2-[2-[2-[[(4S)-4-carboxy-4-(17-carboxyheptadecanoylamino)butanoyl]amino]ethoxy]ethoxy]acetyl]amino]ethoxy]ethoxy]acetyl]amino]butanoyl]amino]butanoyl]-[Arg12,Leu16,Glu21,Lys24,Leu27,Ser28]-Glucagon] (H-HSQGTFTSDYSRYLDLRRAQEFVK([γGlu-γGlu-AEEA-AEEA-γGlu-C18 diacid])WLLST-OH)
  EC50: 0.095 nM

## CC(C)C[C@H](NC(=O)[C@H](CC(=O)O)NC(=O)[C@H](CC(C)C)NC(=O)[C@H](Cc1ccc(O)cc1)NC(=O)[C@H](CCCNC(=N)N)NC(=O)[C@H](CO)NC(=O)[C@H](Cc1ccc(O)cc1)NC(=O)[C@H](CC(=O)O)NC(=O)[C@H](CO)NC(=O)[C@@H](NC(=O)[C@H](Cc1ccccc1)NC(=O)[C@@H](NC(=O)CNC(=O)[C@H](CCC(N)=O)NC(=O)[C@H](CO)NC(=O)[C@@H](N)Cc1c[nH]cn1)[C@@H](C)O)[C@@H](C)O)C(=O)N[C@@H](CCCNC(=N)N)C(=O)N[C@@H](CCCNC(=N)N)C(=O)N[C@@H](C)C(=O)N[C@@H](CCC(N)=O)C(=O)N[C@@H](CC(=O)O)C(=O)N[C@@H](Cc1ccccc1)C(=O)N[C@H](C(=O)N[C@@H](CCCCNC(=O)CC[C@H](NC(=O)CC[C@H](NC(=O)COCCOCCNC(=O)COCCOCCNC(=O)CC[C@H](NC(=O)CCCCCCCCCCCCCCCCC(=O)O)C(=O)O)C(=O)O)C(=O)O)C(=O)N[C@@H](Cc1c[nH]c2ccccc12)C(=O)N[C@@H](CC(C)C)C(=O)N[C@@H](CCC(=O)O)C(=O)N[C@@H](CO)C(=O)N[C@H](C(=O)O)[C@@H](C)O)C(C)C [Example 47, N^ε24-[(4S)-4-carboxy-4-[[(4S)-4-carboxy-4-[[2-[2-[2-[[2-[2-[2-[[(4S)-4-carboxy-4-(17-carboxyheptadecanoylamino)butanoyl]amino]ethoxy]ethoxy]acetyl]amino]ethoxy]ethoxy]acetyl]amino]butanoyl]amino]butanoyl]-[Arg12,Leu16,Lys24,Glu27,Ser28]-Glucagon] (H-HSQGTFTSDYSRYLDLRRAQDFVK([γGlu-γGlu-AEEA-AEEA-γGlu-C18 diacid])WLEST-OH)
  EC50: 0.136 nM

## CC(C)C[C@H](NC(=O)[C@H](CC(=O)O)NC(=O)[C@H](CC(C)C)NC(=O)[C@H](Cc1ccc(O)cc1)NC(=O)[C@H](CCCNC(=N)N)NC(=O)[C@H](CO)NC(=O)[C@H](Cc1ccc(O)cc1)NC(=O)[C@H](CC(=O)O)NC(=O)[C@H](CO)NC(=O)[C@@H](NC(=O)[C@H](Cc1ccccc1)NC(=O)[C@@H](NC(=O)CNC(=O)[C@H](CCC(N)=O)NC(=O)[C@H](CO)NC(=O)[C@@H](N)Cc1c[nH]cn1)[C@@H](C)O)[C@@H](C)O)C(=O)N[C@@H](CCCNC(=N)N)C(=O)N[C@@H](CCCNC(=N)N)C(=O)N[C@@H](C)C(=O)N[C@@H](CCC(N)=O)C(=O)N[C@@H](CC(=O)O)C(=O)N[C@@H](Cc1ccccc1)C(=O)N[C@H](C(=O)N[C@@H](CCCCNC(=O)CC[C@H](NC(=O)CC[C@H](NC(=O)COCCOCCNC(=O)COCCOCCNC(=O)CC[C@H](NC(=O)CCCCCCCCCCCCCCCCC(=O)O)C(=O)O)C(=O)O)C(=O)O)C(=O)N[C@@H](Cc1c[nH]c2ccccc12)C(=O)N[C@@H](CC(C)C)C(=O)N[C@@H](CC(C)C)C(=O)N[C@@H](CCC(N)=O)C(=O)N[C@H](C(=O)O)[C@@H](C)O)C(C)C [Example 48, N^ε24-[(4S)-4-carboxy-4-[[(4S)-4-carboxy-4-[[2-[2-[2-[[2-[2-[2-[[(4S)-4-carboxy-4-(17-carboxyheptadecanoylamino)butanoyl]amino]ethoxy]ethoxy]acetyl]amino]ethoxy]ethoxy]acetyl]amino]butanoyl]amino]butanoyl]-[Arg12,Leu16,Lys24,Leu27,Gln28]-Glucagon] (H-HSQGTFTSDYSRYLDLRRAQDFVK([γGlu-γGlu-AEEA-AEEA-γGlu-C18 diacid])WLLQT-OH)
  EC50: 0.204 nM
